Measurements from patent US20020142297A1, “Compositions and methods for imaging gene expression” (The General Hospital Corporation, a Massachusetts …, priority 1997, published 2002).

Columns and labels:
[1] = In vivo detection of RPCs in muscle tissue (gamma imaging after i.v. 99mTc gluceptate); conditions: rats, rectus femoris muscle injected with RPC; 1 hour after i.v. injection of 0.5 mCi 99mTc gluceptate
Procedure: RPCs having the sequences GGGCGGGCGGGC (SEQ ID NO: 13) and GGGCGGGC (SEQ ID NO: 14) were dissolved in sterile saline to give a concentration of 1 μM thiol (i.e., the —SH function groups of cysteine residues). 100 μl of this solution was injected into the rectus femoris muscles of anesthetized rats. Ten minutes after injection, 0.5 mCi of ^99mTc gluceptate-[bis(oxotechnetate(v)glucoheptonate] anion was injected via intravenous catheter. The animals were imaged at 10 minutes and at 1 hour after the injection of the isotope. It was suspected that Tc glucoheptonate can permeate into the interstitium and be taken up non-specifically (e.g., by pinocytosis) by resident cells, thus creating background activity.
Nonetheless, the radioactivity that had accumulated in the injected muscle 1 hour after injection with the RPC containing three consecutive GGGC repeats (SEQ ID NO: 13) or two consecutive GGGC repeats (SEQ ID NO: 14) were 3- or 2-fold higher, respectively, than the radioactivity that had accumulated in the contralateral (control) muscle at that time. No differences in radioactivity accumulated in injected vs. control muscles were detected in animals injected with saline, or an RPC pretreated with N-ethylmaleimide to block oxotechnetate-binding sites.

[2] = Labeling of RPC with 99mTc-glucoheptonate and stability of the metal-RPC complex by reverse-phase HPLC; type: binding
Procedure: The tetrapeptide WGGC (SEQ ID NO: 1) was incubated with ^99mTc-gluccheptonate. […] The label was ascertained to be stably associated with the peptide for at least 24 hours as determined by reverse-phase high performance liquid chromatography (HPLC) (see, FIG. 7).
FIGS. 6 and 7 are the HPLC traces corresponding to the binding 30 minutes and 24 hours post-injection, respectively. In both traces, the bold line represents radioactivity and the thin line represents absorbance. The naked ^99mTc-glucoheptonate has a retention time of 2 minutes, while the RPC-Tc complex has a retention time of 5 to 9 minutes.

| Substance | radioactivity accumulated in the injected muscle vs. the contralateral (control) muscle [1] [fold] | radiation at 2 minutes (retention time of naked 99mTc-glucoheptonate) ([2]; 30 minutes, HPLC radioactivity trace (FIG. 6)) | share of total integral at 2 minutes (retention time of naked 99mTc-glucoheptonate) ([2]; 24 hours, HPLC radioactivity trace (FIG. 7)) [%] | labeling of the peptide ([2]; incubated with 99mTc-glucoheptonate, within 30 minutes) [%] | time the label is stably associated with the peptide ([2]; reverse-phase HPLC) |
| --- | --- | --- | --- | --- | --- |
| GGGCGGGC [SEQ ID NO: 14, RPC containing two consecutive GGGC repeats] | 2 | – | – | – | – |
| GGGCGGGCGGGC [SEQ ID NO: 13] | 3 | – | – | – | – |
| WGGC | – | no radiation is observed above the baseline | 0.468 | 99 | at least 24 hours |
